# Values of other authors as cited in patent US10688050B1 (Synthon B.V., priority 2018, dated 2020).
# Like-named read-outs stand apart in the source and are kept apart here.
# Tests used:
# [1] = not given; remark: listed apart in the source
SMILES,solubility (BCS),solubility ([1]; pH 1.2),solubility ([1]; pH range from 3 to 8)
"C=CC(=O)N1CCC[C@@H](n2nc(-c3ccc(Oc4ccccc4)cc3)c3c(N)ncnc32)C1 [Ibrutinib, 1-[(3R)-3-[4-amino-3-(4-phenoxyphenyl)-1H-pyrazolo[3,4-d]pyrimidin-1-yl]piperidin-1-yl]prop-2-en-1-one]",low,,
C=CC(=O)N1CCC[C@@H](n2nc(-c3ccc(Oc4ccccc4)cc3)c3c(N)ncnc32)C1 [ibrutinib form A],,slightly soluble,practically insoluble
